Patent US8129419B2, “Microbicidal composition” (Rohm and Haas Company, priority 2007, dated 2012)
Several values for one entry are separate records, joined by “and”; a condition that tells them apart may be missing. Identical values can stand only once.

Tests used:
Assay type in all cases: cell-based
C. albicans ATCC # 10231 = test: Synergy test: microtiter plate high resolution MIC assay, PDB medium, 25° C.; conditions: for MIC of the microbicide acting alone (Ca or Cb; QA/QB): C. albicans, single component
Excerpt: (§1) One measure of synergism is the industrially accepted method described by Kull, F. C.; Eisman, P. C.; Sylwestrowicz, H. D. and Mayer, R. L., in Applied Microbiology 9:538-541 (1961), using the ratio determined by the formula: Qa/QA+Qb/QB=Synergy Index(“SI”) wherein: • QA=concentration of compound A (first component) in ppm, acting alone, which produced an end point (MIC of Compound A). • Qa=concentration of compound A in ppm, in the mixture, which produced an end point. • QB=concentration of compound B (second component) in ppm, acting alone, which produced an end point (MIC of Compound B). • Qb=concentration of compound B in ppm, in the mixture, which produced an end point.
(§2) When the sum of Qa/QA and Qb/QB is greater than one, antagonism is indicated. […] The lower the SI, the greater the synergy shown by that particular mixture. The minimum inhibitory concentration (MIC) of a microbicide is the lowest concentration tested under a specific set of conditions that prevents the growth of added microorganisms.
(§3) Synergy tests were conducted using standard microtiter plate assays with media designed for optimal growth of the test microorganism. Minimal salt medium supplemented with 0.2% glucose and 0.1% yeast extract (M9GY medium) was used for testing bacteria; Potato Dextrose Broth (PDB medium) was used for testing yeast and mold. In this method, a wide range of combinations of microbicides was tested by conducting high resolution MIC assays in the presence of various concentrations of MBIT. High resolution MICs were determined by adding varying amounts of microbicide to one column of a microtitre plate and doing subsequent […] dilutions using an automated liquid handling system to obtain a series of endpoints ranging from 2 ppm to 10,000 ppm active ingredient.
(§4) The synergy of the combinations of the present invention was determined against several microorganisms, as described in the Tables below. The bacteria were used at a concentration of about 5×10^6 bacteria per mL and the yeast and mold at 5×10^5 fungi per mL. These microorganisms are representative of natural contaminants in many consumer and industrial applications. […] (yeast and mold) or 30° C. (bacteria).
(§5) In each test, Second Component (B) was MBIT and the First Component (A) was the other commercial microbicide.

A. niger ATCC # 16404 = test: as above; conditions: for MIC of the microbicide acting alone (Ca or Cb; QA/QB): A. niger, single component
Excerpt: as §1, §2, §3, §4, §5

S. aureus ATCC#6538 = test: Synergy test: microtiter plate high resolution MIC assay, M9GY medium, 30° C.; conditions: for MIC of the microbicide acting alone (Ca or Cb; QA/QB): S. aureus, single component; for Cb: ppm AI of MBIT alone (MIC end-point, QB): Table 6
Excerpt: as §1, §2, §3, §4, §5

Ps. aeruginosa ATCC#9027 = test: as above; conditions: for MIC of the microbicide acting alone (Ca or Cb; QA/QB): Ps. aeruginosa, single component
Excerpt: as §1, §2, §3, §4, §5

[1] = contact time 48 hrs, MBIT alone (QB) or in mixture with ACQ C2 (Qb)
[2] = contact time 48 hrs, MBIT alone (QB) or in mixture with ACQ type D (Qb)
[3] = contact time 24 hrs, MBIT alone (QB) or in mixture with ACQ C2 (Qb)
[4] = contact time 24 hrs, MBIT alone (QB) or in mixture with ACQ type D (Qb)

How did the “MIC of the microbicide acting alone (Ca or Cb; QA/QB)” value (“MIC of the microbicide acting alone” for short) (C. albicans ATCC # 10231; contact time 48 hrs) turn out when `CCCCCCCCCCCC(=O)N[C@@H](CCCN=C(N)N)C(=O)OCC.Cl` [CYTO GUARD LA, ethyl lauroyl arginate hydrochloride] was run?
The value was 87.5 ppm AI.

What about the “MIC of the microbicide acting alone” value (C. albicans ATCC # 10231; contact time 72 hrs) of the same molecule?
Its value is 87.5 ppm AI.

And the “MIC of the microbicide acting alone” value (A. niger ATCC # 16404; contact time 3 days)?
Its value is 110 ppm AI.

What about the “MIC of the microbicide acting alone” value (A. niger ATCC # 16404; contact time 7 days) of the same molecule?
The value was 110 ppm AI.

And the “MIC of the microbicide acting alone” value (S. aureus ATCC#6538; contact time 24 hrs)?
The value was 2.125 ppm AI.

What about the “MIC of the microbicide acting alone” value (S. aureus ATCC#6538; contact time 48 hrs) of the same molecule?
The value was 2.625 ppm AI.

What about the “MIC of the microbicide acting alone” value (Ps. aeruginosa ATCC#9027; contact time 48 hrs) of the same molecule?
Its value is 42.5 ppm AI.

How did the “MIC of the microbicide acting alone” value (C. albicans ATCC # 10231; contact time 48 hrs) turn out when “cocamidopropyl-N-2-hydroxyethylcarbamoyl methyl dimethyl ammonium chloride [MONTALINE C40]” was run?
The value was 525 ppm AI.

And the “MIC of the microbicide acting alone” value (C. albicans ATCC # 10231; contact time 72 hrs)?
The value was 1100 ppm AI.

What about the “MIC of the microbicide acting alone” value (A. niger ATCC # 16404; contact time 3 days) of the same molecule?
The value was 650 ppm AI.

What about the “MIC of the microbicide acting alone” value (A. niger ATCC # 16404; contact time 7 days) of the same molecule?
Its value is 650 ppm AI.

What about the “MIC of the microbicide acting alone” value (S. aureus ATCC#6538; contact time 24 hrs) of the same molecule?
Its value is 5 ppm AI.

And the “MIC of the microbicide acting alone” value (S. aureus ATCC#6538; contact time 48 hrs)?
Its value is 5 ppm AI.

What about the “MIC of the microbicide acting alone” value (Ps. aeruginosa ATCC#9027; contact time 24 hrs) of the same molecule?
Its value is 300 ppm AI.

And the “MIC of the microbicide acting alone” value (Ps. aeruginosa ATCC#9027; contact time 48 hrs)?
Its value is 300 ppm AI.

What does the source list for `Cn1sc2ccccc2c1=O` [MBIT, N-methyl-1,2-benzisothiazolin-3-one]?
Cb: ppm AI of MBIT alone (MIC end-point, QB) (C. albicans ATCC # 10231; C. albicans ATCC # 10231, contact time 48 hrs, Table 6): 30 ppm; Cb: ppm AI of MBIT alone (MIC end-point, QB) (C. albicans ATCC # 10231; C. albicans ATCC # 10231, contact time 48 hrs, Table 7): 30 ppm; Cb: ppm AI of MBIT alone (MIC end-point, QB) (C. albicans ATCC # 10231; C. albicans ATCC # 10231, contact time 48 hrs, Table 8): 30 ppm; Cb: ppm AI of MBIT alone (MIC end-point, QB) (C. albicans ATCC # 10231; C. albicans ATCC # 10231, contact time 72 hrs, Table 6): 30 ppm; Cb: ppm AI of MBIT alone (MIC end-point, QB) (C. albicans ATCC # 10231; C. albicans ATCC # 10231, contact time 72 hrs, Table 7): 30 ppm; Cb: ppm AI of MBIT alone (MIC end-point, QB) (C. albicans ATCC # 10231; C. albicans ATCC # 10231, contact time 72 hrs, Table 8): 30 ppm; MIC of the microbicide acting alone (Ca or Cb; QA/QB) (C. albicans ATCC # 10231; contact time 48 hrs): 30 ppm AI; MIC of the microbicide acting alone (Ca or Cb; QA/QB) (C. albicans ATCC # 10231; contact time 72 hrs): 30 ppm AI and 60 ppm AI; Cb: ppm AI of MBIT at MIC end point (C. albicans ATCC # 10231; [1]): 60 ppm; Cb: ppm AI of MBIT at MIC end point (C. albicans ATCC # 10231; [2]): 30 ppm; Cb: ppm AI of MBIT at MIC end point (C. albicans ATCC # 10231; contact time 72 hrs, MBIT alone (QB) or in mixture with ACQ C2 (Qb)): 60 ppm; Cb: ppm AI of MBIT at MIC end point (C. albicans ATCC # 10231; contact time 72 hrs, MBIT alone (QB) or in mixture with ACQ type D (Qb)): 60 ppm; Cb: ppm AI of MBIT alone (MIC end-point, QB) (A. niger ATCC # 16404; A. niger ATCC # 16404, contact time 3 days, Table 6): 37.5 ppm; Cb: ppm AI of MBIT alone (MIC end-point, QB) (A. niger ATCC # 16404; A. niger ATCC # 16404, contact time 3 days, Table 7): 37.5 ppm; Cb: ppm AI of MBIT alone (MIC end-point, QB) (A. niger ATCC # 16404; A. niger ATCC # 16404, contact time 3 days, Table 8): 37.5 ppm; Cb: ppm AI of MBIT alone (MIC end-point, QB) (A. niger ATCC # 16404; A. niger ATCC # 16404, contact time 7 days, Table 6): 37.5 ppm; Cb: ppm AI of MBIT alone (MIC end-point, QB) (A. niger ATCC # 16404; A. niger ATCC # 16404, contact time 7 days, Table 7): 75 ppm; Cb: ppm AI of MBIT alone (MIC end-point, QB) (A. niger ATCC # 16404; A. niger ATCC # 16404, contact time 7 days, Table 8): 75 ppm; MIC of the microbicide acting alone (Ca or Cb; QA/QB) (A. niger ATCC # 16404; contact time 3 days): 37.5 ppm AI; MIC of the microbicide acting alone (Ca or Cb; QA/QB) (A. niger ATCC # 16404; contact time 7 days): 37.5 ppm AI and 75 ppm AI; Cb: ppm AI of MBIT at MIC end point (A. niger ATCC # 16404; contact time 3 days, MBIT alone (QB) or in mixture with ACQ C2 (Qb)): 37.5 ppm; Cb: ppm AI of MBIT at MIC end point (A. niger ATCC # 16404; contact time 3 days, MBIT alone (QB) or in mixture with ACQ type D (Qb)): 37.5 ppm; Cb: ppm AI of MBIT at MIC end point (A. niger ATCC # 16404; contact time 7 days, MBIT alone (QB) or in mixture with ACQ C2 (Qb)): 37.5 ppm; Cb: ppm AI of MBIT at MIC end point (A. niger ATCC # 16404; contact time 7 days, MBIT alone (QB) or in mixture with ACQ type D (Qb)): 75 ppm; Cb: ppm AI of MBIT alone (MIC end-point, QB) (S. aureus ATCC#6538; S. aureus ATCC#6538, contact time 24 hrs): 15 ppm; Cb: ppm AI of MBIT alone (MIC end-point, QB) (S. aureus ATCC#6538; S. aureus ATCC#6538, contact time 48 hrs): 15 ppm; MIC of the microbicide acting alone (Ca or Cb; QA/QB) (S. aureus ATCC#6538; contact time 24 hrs): 15 ppm AI; MIC of the microbicide acting alone (Ca or Cb; QA/QB) (S. aureus ATCC#6538; contact time 48 hrs): 15 ppm AI; MIC of the microbicide acting alone (Ca or Cb; QA/QB) (S. aureus ATCC#6538; second block of Table 4, contact time not given): 15 ppm AI; Cb: ppm AI of MBIT at MIC end point (S. aureus ATCC#6538; [3]): 15 ppm; Cb: ppm AI of MBIT at MIC end point (S. aureus ATCC#6538; [4]): 15 ppm; Cb: ppm AI of MBIT at MIC end point (S. aureus ATCC#6538; [1]): 15 ppm; Cb: ppm AI of MBIT at MIC end point (S. aureus ATCC#6538; [2]): 15 ppm; Cb: ppm AI of MBIT alone (MIC end-point, QB) (Ps. aeruginosa ATCC#9027; Ps. aeruginosa ATCC#9027, contact time 24 hrs, alone, Table 6): 125 ppm; MIC of the microbicide acting alone (Ca or Cb; QA/QB) (Ps. aeruginosa ATCC#9027; contact time 24 hrs): 125 ppm AI; MIC of the microbicide acting alone (Ca or Cb; QA/QB) (Ps. aeruginosa ATCC#9027; contact time 48 hrs): 125 ppm AI; Cb: ppm AI of MBIT at MIC end point (Ps. aeruginosa ATCC#9027; [3]): 75 ppm; Cb: ppm AI of MBIT at MIC end point (Ps. aeruginosa ATCC#9027; [4]): 75 ppm; Cb: ppm AI of MBIT at MIC end point (Ps. aeruginosa ATCC#9027; [1]): 125 ppm; Cb: ppm AI of MBIT at MIC end point (Ps. aeruginosa ATCC#9027; [2]): 125 ppm
